{"source": "patent US8324188B2", "about": "“Combinations of ET-18-O-CH3and anti-cancer agents for the treatment of cancer” (priority 2006, dated 2012)", "key": {"[1]": {"test_system": "NCI-H460 (FAS positive)", "assay": "WST-1 proliferation assay, NCI-H460", "assay_type": "cell-based, human", "conditions": "single agent, per experiment line", "experimental": "2000 cells were plated in each well of 96-well flat bottom plates, and incubated overnight at 37 °C in 5% CO2. The growth of plated cells was measured by adding […] of WST-1 reagent (Roche Applied Sciences, Germany) to 3 control wells and measuring the absorbance at 650 nm and at 450 nm, respectively, with a SpectraMax250 plate reader. […] After this incubation, VVST-1 reagent was added to the wells and OD650-OD450 values were calculated as before. six wells were assayed for each conditions and standard deviation was determined: all experiments were performed at least three times independently. […] DDP and GMZ were both purchased from Sigma-aldrich Corp., St. Louis, Mo., USA. The following cell lines were used: A549 (FAS negative), NCI-H460 (FAS positive), and HCC827 (FAS positive), all obtained from the ATTC, Rockville, Md., USA."}, "[2]": {"test_system": "androgen-insensitive LNCaP C4-2", "assay": "apoptosis in LNCaP C4-2 cells", "assay_type": "cell-based, human", "conditions": "data not shown"}, "[3]": {"test_system": "A172", "assay": "WST-1 proliferation assay, A172", "assay_type": "cell-based, human", "experimental": "(§1) AP-121 was prepared as 5 mM stock solution in distilled sterile water, Temozolomide (TMZ) (Haorui Pharma-Chem, Inc., Edison, N.J.) was prepared as 100 mM in sterile filtrated DMSO; Adriamycin (ADR) (Sigma) was prepared as 1 mM in distilled sterile water; Camptothecin (CTP) (Sigma) was prepared as 10 mM solution in 0.1 N NaOH; Tarceva (Proteinkinase, Germany) was prepared as 5 mM solution in sterile DMSO. All compound stocks were kept at −20° C. 2000 cells were plated in each well of 96-well flat bottom plates, and incubated overnight at 37 °C in 5% CO2. The growth of plated cells was measured by adding […] of WST-1 reagent (Roche Applied Sciences, Germany) to 3 control wells and measuring the absorbance at 650 nm and at 450 nm, respectively, with a SpectraMax250 plate reader. […] After this incubation, VVST-1 reagent was added to the wells and OD650-OD450 values were calculated as before. six wells were assayed for each conditions and standard deviation was determined: all experiments were performed at least three times independently. […] Six different concentrations of each drug were used in combinations index measurements and compared to +/− cells, and compared to controls without compound."}, "[4]": {"test_system": "LN-229", "assay": "WST-1 proliferation assay, LN-229", "assay_type": "cell-based", "conditions": "Homo sapiens", "experimental": "2000 cells were plated in each well of 96-well flat bottom plates, and incubated overnight at 37 °C in 5% CO2. The growth of plated cells was measured by adding […] of WST-1 reagent (Roche Applied Sciences, Germany) to 3 control wells and measuring the absorbance at 650 nm and at 450 nm, respectively, with a SpectraMax250 plate reader. If the OD650-OD450 values were above 0.5, the remainder of the plate was used for incubation with AP-121, other pharmacological agents or solvent control for 96 hours.\nAfter this incubation, VVST-1 reagent was added to the wells and OD650-OD450 values were calculated as before. six wells were assayed for each conditions and standard deviation was determined: all experiments were performed at least three times independently. After elucidation of individual IC50 values for each compound, the simultaneous combination treatment of AP-121 and the chemotherapeutic agent at their IC50 ratio was performed; combination index (CI) was determined by Calcusyn software package (Biosoft, Ferguson, Mo.). Data were evaluated by calculating the means of the combination index (CI), where a CI of <0.3 indicates a strong synergistic effect, 0.3<CI<0.7 a synergistic effect, 0.7<CI<0.9 moderate synergy, 0.9<CI<1 additive effect and CI>1 antagonistic effect, respectively.\nFor the AP-121 cell proliferation drug combination measurements, the ED50 was determined for each drug. Six different concentrations of each drug were used in combinations index measurements and compared to +/− cells, and compared to controls without compound. Each combination was repeated 6 times at 2 different time points (24 and 96 hours), each of the above experiments was repeated 3 times to obtain valid results."}, "[5]": {"test_system": "androgen-insensitive LNCaP-Res cells", "assay": "apoptosis in LNCaP-Res cells", "assay_type": "cell-based, human", "conditions": "data not shown"}, "[6]": {"test_system": "U87MG", "assay": "WST-1 proliferation assay, U87MG", "assay_type": "cell-based, human", "experimental": "as §1"}, "[7]": {"test_system": "HeLa", "conditions": "mean ± SD from three independent experiments, read-out: ED50 values for induction of apoptosis; cited from earlier work"}, "[8]": {"test_system": "A431", "conditions": "mean ± SD from three independent experiments, read-out: ED50 values for induction of apoptosis; cited from earlier work"}}, "note": "“And” between values parts separate entries of the source, which are not always exact repeats. Equal entries are not always repeated.", "data": [{"smiles": "CCCCCCCCCCCCCCCCCCOCC(COP(=O)([O-])OCC[N+](C)(C)C)OC", "note": "(racemic) [AP-121, 1-O-octadecyl-2-O-methyl-glycero-3-phosphocholine]", "values": [{"measurement": "IC50", "setting": "[1]; Homo sapiens, NCI-H460, NCI-H460", "value": 1.5, "unit": "µM"}, {"measurement": "IC50", "setting": "[1]; NCI-H460", "value": "1.4 µM and 2 µM"}, {"measurement": "apoptosis in CHEM+RT treated cells", "setting": "[2]", "value": "enhancement of apoptosis"}, {"measurement": "IC50", "setting": "[3]; Homo sapiens, A 172", "value": 4.6, "unit": "µM"}, {"measurement": "EC50", "setting": "[3]; Homo sapiens, A 172, single agent or compound mixture as labelled (arrays A2, A1), read-out: ED50 (the source's name)", "value": 4.2, "unit": "µM"}, {"measurement": "normalized ED50 (arrays B2, B1)", "setting": "[3]; ratio to the largest value", "value": 0.62}, {"measurement": "IC50", "setting": "[4]", "value": 4.3, "unit": "µM"}, {"measurement": "apoptosis in CHEM+RT treated cells", "setting": "[5]", "value": "enhancement of apoptosis"}, {"measurement": "IC50", "setting": "[6]; Homo sapiens, U-87 MG", "value": 8.5, "unit": "µM"}, {"measurement": "EC50", "setting": "[6]; Homo sapiens, U-87 MG, single agent or compound mixture as labelled (arrays A2, A1), read-out: ED50 (the source's name)", "value": 6.8, "unit": "µM"}, {"measurement": "normalized ED50 (arrays B2, B1)", "setting": "[6]; ratio to the largest value", "value": 1}, {"measurement": "EC50", "setting": "[7]", "value": "5.17 ± 1.6", "unit": "µM"}, {"measurement": "EC50", "setting": "[8]", "value": "15.5 ± 2.9", "unit": "µM"}]}]}
